The values below come from patent US11312719B2, “9-substituted amino triazolo quinazoline derivatives as adenosine receptor antagonists, pharmaceutical compositions and their use” (Merck Sharp & Dohme Corp., priority 2018, dated 2022).

For assay [1], the target named is human A2a adenosine receptor (Homo sapiens (Human), UniProt P29274). Briefly: A2a receptor affinity radioligand binding assay ([3H] SCH58261). The note with it: membranes from HEK293 or CHO cells expressing human A2a receptor. The method in brief: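 IC50 values come from 4-parameter logistic fits of filter-bound radioactivity, normalized to total (1% DMSO) and nonspecific (1 μM ZM241385) binding. Recombinant human A2a membranes (HEK293 or CHO) were exposed to compound for 15–30 min, then to [3H]SCH58261 (4 nM working dilution) for 60 min at room temperature in Tris pH 7.4/MgCl2/Tween20 buffer.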

In assay [2] the target is human A2b adenosine receptor (Homo sapiens (Human), UniProt P29275). As to the kind of experiment: A2b radioligand filtration binding assay. The conditions noted are these: membranes from HEK293 cells expressing human A2b receptor. In a few lines: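 Displacement of a tritiated A2b antagonist (working solution 14 nM) from human A2b receptor membranes of recombinant HEK293 cells, in Mg/Ca-free PBS pH 7.4, 60 min at room temperature after 15 to 30 min compound preincubation. Filtered, counted; normalized to total and 20 μM NECA non-specific binding; IC50 from logistic fit.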
Chain of human A2b adenosine receptor (P29275 whole entry): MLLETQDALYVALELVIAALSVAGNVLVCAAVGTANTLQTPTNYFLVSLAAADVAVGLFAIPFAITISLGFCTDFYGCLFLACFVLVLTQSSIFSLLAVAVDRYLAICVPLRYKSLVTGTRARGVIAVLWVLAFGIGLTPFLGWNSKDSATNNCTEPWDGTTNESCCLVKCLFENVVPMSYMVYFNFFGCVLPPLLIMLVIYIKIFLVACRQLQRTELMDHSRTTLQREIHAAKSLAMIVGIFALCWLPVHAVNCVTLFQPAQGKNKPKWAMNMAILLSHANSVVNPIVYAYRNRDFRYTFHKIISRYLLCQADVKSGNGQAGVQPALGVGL

Chain of human A2a adenosine receptor (P29274 whole entry): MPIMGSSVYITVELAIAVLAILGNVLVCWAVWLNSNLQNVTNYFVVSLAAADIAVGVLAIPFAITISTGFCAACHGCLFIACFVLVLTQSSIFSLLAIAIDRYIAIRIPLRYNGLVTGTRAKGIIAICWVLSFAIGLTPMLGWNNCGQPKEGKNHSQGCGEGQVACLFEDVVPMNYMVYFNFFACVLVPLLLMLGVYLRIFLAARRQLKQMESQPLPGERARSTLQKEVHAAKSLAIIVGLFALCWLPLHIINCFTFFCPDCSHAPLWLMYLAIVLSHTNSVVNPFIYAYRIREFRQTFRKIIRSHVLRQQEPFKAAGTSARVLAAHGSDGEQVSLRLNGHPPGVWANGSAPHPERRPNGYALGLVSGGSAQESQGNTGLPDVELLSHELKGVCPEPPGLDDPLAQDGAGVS

Usually IC50 stands for the concentration needed to halve the response being measured. Read a high IC50 as weaker potency in that assay. As to `CCn1cc(N2CCC[C@@H](c3nc4c5cc(F)c(OC)cc5nc(N)n4n3)C2)c(CO)n1` [Example 20, (R)-(4-(3-(5-amino-9-fluoro-8-methoxy-[1,2,4]triazolo[1,5-c]quinazolin-2-yl)piperidin-1-yl)-ethyl-1H-pyrazol-3-yl)methanol], the results for the IC50 in assay [1] and in assay [2] were 5.8 nM and 163 nM, respectively.

Take `COc1cc2nc(N)n3nc([C@@H]4CCCN(c5cn(CC(C)(C)O)nc5C5CC5)C4)nc3c2cc1F` [Example 21, (R)-1-(4-(3-(5-amino-9-fluoro-8-methoxy-[1,2,4]triazolo[1,5-c]quinazolin-2-yl)piperidin-1-yl)-3-cyclopropyl-1H-pyrazol-1-yl)-2-methylpropan-2-ol]: the values for the IC50 in assay [1] and in assay [2] were 0.3 nM and 515 nM, respectively.

`COc1cc2nc(N)n3nc([C@@H]4CCCN(c5ccc(OC(F)F)nc5)C4)nc3c2cc1F` [Example 22, (R)-2-(1-(6-(difluoromethoxy)pyridin-3-yl)piperidin-3-yl)-9-fluoro-8-methoxy[1,2,4]triazolo[1,5-c]quinazolin-5-amine]: the values for the IC50 in assay [1] and in assay [2] were 8.6 nM and 27.6 nM, respectively.

On to `COc1cc2nc(N)n3nc([C@@H]4CCCN(c5ccc(OC(C)C)nc5)C4)nc3c2cc1F` [Example 23, (R)-9-fluoro-2-(1-(6-isopropoxypyridin-3-yl)piperidin-3-yl)-8-methoxy-[1,2,4]triazolo[1,5-c]quinazolin-5-amine], for which the 50% inhibitory concentration (IC50) in assay [1] stood at 2 nM; in assay [2], 15.9 nM.

In the case of `COc1cc2nc(N)n3nc([C@@H]4CCCN(c5cnc(OC(F)F)c(C)c5)C4)nc3c2cc1F` [Example 24, (R)-2-(1-(6-(difluoromethoxy)-5-methylpyridin-3-yl)piperidin-3-yl)-9-fluoro-8-methoxy-[1,2,4]triazolo[1,5-c]quinazolin-5-amine], the figures for the IC50 in assay [1] and in assay [2] were 13.8 nM and 480 nM, respectively.

Turning to `COc1cc2nc(N)n3nc([C@@H]4CCCN(c5cc(C)c(=O)n(C(F)F)c5)C4)nc3c2cc1F` [Example 25, (R)-5-(3-(5-amino-9-fluoro-8-methoxy-[1,2,4]triazolo[1,5-c]quinazolin-2-yl)piperidin-1-yl)-1-(difluoromethyl)-3-methylpyridin-2(1H)-one], the IC50 was determined as 0.6 nM in assay [1] and 61.7 nM in assay [2].

`COc1ccc(N2CCC[C@@H](c3nc4c5cc(F)c(OC)cc5nc(N)n4n3)C2)cn1` [Example 26, (R)-9-fluoro-8-methoxy-2-(1-(6-methoxypyridin-3-yl)piperidin-3-yl)-[1,2,4]triazolo[1,5-c]quinazolin-5-amine]: the IC50 was 3.9 nM in assay [1] and 48.7 nM in assay [2].

With `COc1cc2nc(N)n3nc([C@@H]4CCCN(c5nc(C)n(CC(C)(C)O)n5)C4)nc3c2cc1F` [Example 27, (R)-1-(3-(3-(5-amino-9-fluoro-8-methoxy-[1,2,4]triazolo[1,5-c]quinazolin-2-yl)piperidin-1-yl)-5-methyl-1H-1,2,4-triazol-1-yl)-2-methylpropan-2-ol], the IC50 in assay [1] came out at 1.8 nM; in assay [2], 861 nM.

On to `COc1cc(F)cc2c1nc(N)n1nc([C@@H]3CCCN(c4cnn(CC(C)(C)O)c4)C3)nc21` [Example 28, (R)-1-(4-(3-(5-amino-9-fluoro-7-methoxy-[1,2,4]triazolo [1,5-c]quinazolin-2-yl)piperidin-1-yl)-1H-pyrazol-1-yl)-2-methylpropan-2-ol], for which the IC50 in assay [1] was 2.8 nM; in assay [2], 76.3 nM.

`COc1cc(F)cc2c1nc(N)n1nc([C@@H]3CCCN(c4cnn(CC(C)(C)O)c4C)C3)nc21` [Example 29, (R)-1-(4-(3-(5-amino-9-fluoro-7-methoxy-[1,2,4]triazolo [1,5-c]quinazolin-2-yl)piperidin-1-yl)-5-methyl-1H-pyrazol-1-yl)-2-methylpropan-2-ol]: the IC50 in assay [1] is 1.5 nM; in assay [2], 301 nM.

Regarding `COc1cc(F)cc2c1nc(N)n1nc([C@@H]3CCCN(c4cn(CC(C)(C)O)nc4C)C3)nc21` [Example 30, (R)-1-(4-(3-(5-amino-9-fluoro-7-methoxy-[1,2,4]triazolo [1,5-c]quinazolin-2-yl)piperidin-l-yl)-3-methyl-1H-pyrazol-1-yl)-2-methylpropan-2-ol], the half-inhibitory concentration (IC50) worked out at 0.4 nM in assay [1] and 97.9 nM in assay [2].

As for `COc1cc(F)cc2c1nc(N)n1nc([C@@H]3CCCN(c4cnn(CC5(O)CCC5)c4)C3)nc21` [Example 31, (R)-1-((4-(3-(5-amino-9-fluoro-7-methoxy-[1,2,4]triazolo [1,5-c]quinazolin-2-yl)piperidin-l-yl)-1H-pyrazol-1-yl)methyl)cyclobutan-1-ol], the IC50 in assay [1] was 1.7 nM; in assay [2], 94.8 nM.

For the compound `COc1cc(F)cc2c1nc(N)n1nc([C@@H]3CCCN(c4cnn(C(C)(C)CO)c4)C3)nc21` [Example 32, (R)-2-(4-(3-(5-amino-9-fluoro-7-methoxy-[1,2,4]triazolo[1,5-c]quinazolin-2-yl)piperidin-1-yl)-1H-pyrazol-1-yl)-2-methylpropan-1-ol], the IC50 in assay [1] was found to be 0.5 nM; in assay [2], 6.9 nM.

For `COc1cc(F)cc2c1nc(N)n1nc([C@@H]3CCCN(c4ccc(OC(F)F)nc4)C3)nc21` [Example 33, (R)-2-(1-(6-(difluoromethoxy)pyridin-3-yl)piperidin-3-yl)-9-fluoro-7-methoxy-[1,2,4]triazolo[1,5-c]quinazolin-5-amine], the results for the IC50 in assay [1] and in assay [2] were 3.6 nM and 17.5 nM, respectively.

Consider `COc1ccc(N2CCC[C@@H](c3nc4c5cc(F)cc(OC)c5nc(N)n4n3)C2)cn1` [Example 34, (R)-9-fluoro-7-methoxy-2-(1-(6-methoxypyridin-3-yl)piperidin-3-yl)-[1,2,4]triazolo[1,5-c]quinazolin-5-amine], for which the IC50 in assay [1] stood at 1.4 nM; in assay [2], 29.7 nM.

`COc1cc(F)cc2c1nc(N)n1nc([C@@H]3CCCN(c4ccc(OC(C)C)nc4)C3)nc21` [Example 35, (R)-9-fluoro-2-(1-(6-isopropoxypyridin-3-yl)piperidin-3-yl)-7-methoxy-[1,2,4]triazolo[1,5-c]quinazolin-5-amine]: the figures for the IC50 in assay [1] and in assay [2] were 0.6 nM and 12.2 nM, respectively.

As for `COc1cc(F)cc2c1nc(N)n1nc([C@@H]3CCCN(c4ncn(CC(C)(C)O)n4)C3)nc21` [Example 36, (R)-1-(3-(3-(5-amino-9-fluoro-7-methoxy-[1,2,4]triazolo[1,5-c]quinazolin-2-yl)piperidin-1-yl)-1H-1,2,4-triazol-1-yl)-2-methylpropan-2-ol], the IC50 in assay [1] was 1.6 nM; in assay [2], 93 nM.

Consider `COc1cc(F)cc2c1nc(N)n1nc([C@@H]3CCCN(c4nc(C)n(CC(C)(C)O)n4)C3)nc21` [Example 37, (R)-1-(3-(3-(5-amino-9-fluoro-7-methoxy-[1,2,4]trazolo[1,5-c]quinazolin-2-yl)piperidin-1-yl)-5-methyl-1H-1,2,4-triazol-1-yl)-2-methylpropan-2-ol], for which the IC50 in assay [1] was 1.1 nM; in assay [2], 468 nM.

Regarding `COc1cc2nc(N)n3nc([C@@H]4CCN(c5cnn(CC6(O)CCC6)c5)C4)nc3c2cc1F` [Example 38, (R)-1((4-(3-(5-amino-9-fluoro-8-methoxy-[1,2,4]triazolo[1,5-c]quinazolin-2-yl)prrolidin-l-yl)-1H-pyrazol-1-yl)methyl)cyclobutan-1-ol], the IC50 in assay [1] came out at 16.9 nM; in assay [2], 182 nM.

On to `COc1cc2nc(N)n3nc(C4CCC(C)N(c5cnn(CC(C)(C)O)c5C)C4)nc3c2cc1F` [Example 52, 1-(4-((2R,5S, or 2S,5R)-5-(5-amino-9-fluoro-8-methoxy-[1,2,4]triazolo[1,5-c]quinazolin-2-yl)-2-methylpiperidin-1-yl)-5-methyl-1H-pyrazol-1-yl)-2-methylpropan-2-ol], for which the IC50 in assay [1] was found to be 18.3 nM; in assay [2], 3010 nM.

On to `COc1cc2nc(N)n3nc(C4CCC(C)N(c5cn(CC(C)(C)O)nc5C)C4)nc3c2cc1F` [Example 53, 1-(4-((2R,5S, or 2S,5R)-5-(5-amino-9-fluoro-8-methoxy-[1,2,4]triazolo[1,5-c]quinazolin-2-yl)-2-methylpiperidin-1-yl)-3-methyl-1H-pyrazol-1-yl)-2-methylpropan-2-ol], for which the figures for the IC50 in assay [1] and in assay [2] were 44.1 nM and 4240 nM, respectively.

`COc1cc2nc(N)n3nc([C@@H]4CCCN(c5cnn(CCCC(C)=O)c5)C4)nc3c2cc1F` [Example 93, (R)-5-(4-(3-(5-amino-9-fluoro-8-methoxy-[1,2,4]triazolo[1,5-c]quinazolin-2-yl)piperidin-1-yl)-1H-pyrazol-1-yl)pentan-2-one]: the results for the IC50 in assay [1] and in assay [2] were 5.8 nM and 315 nM, respectively.

With `COc1cc(F)cc2c1nc(N)n1nc([C@@H]3CCCN(c4cnn(C)c4)C3)nc21` [Example 100, (R)-9-fluoro-7-methoxy-2-(1-(1-methyl-1H-pyrazol-4-yl)piperidin-3-yl)-[1,2,4]triazolo[1,5-c]quinazolin-5-amine], the values for the IC50 in assay [1] and in assay [2] were 1.4 nM and 4.8 nM, respectively.

Consider `COc1cc2nc(N)n3nc([C@@H]4CC[C@H](C)N(c5cnn(CC(C)(C)O)c5)C4)nc3c2cc1F` [Example 109, 1-(4-((2S,5R)-5-(5-amino-9-fluoro-8-methoxy-[1,2,4]triazolo[1,5-c]quinazolin-2-yl)-2-methylpiperidin-1-yl)-1H-pyrazol-1-yl)-2-methylpropan-2-ol], for which the IC50 in assay [1] was 0.7 nM; in assay [2], 7.8 nM.
